# According to patent US12144851B2, “Vaccinal strategy” (INSERM (INSTITUT NATIONAL DE LA SANTÉ ET DE LA RECHERCHE …, priority 2018, dated 2024):
# Read-outs that look alike come from different tables or passages of the source. Where a SMILES comes first, the peptide text is derived from it. Where no end group is shown, it is not given here.
# What was measured:
# [1] = test system: MELOE-1, HLA A*0201 restricted CD8 T cell clone; conditions: for cross-presentation compared with full length MELOE-1 / native antigen (in words): full length MELOE-1 as reference; for Fold change = EC50 (M) of MELOE-111-46/EC50 (M) SLP: SLP MELOE-113-27 xxxx MELOE-136-44, TNF-a response of CD8 T cell clone to SLP-loaded DC, range over independent experiments
# [2] = test system: MELOE-1, HLA DRb1*11 restricted CD4 T cell clone
# [3] = test system: CD8+ splenocytes restimulated with MELOE-136-44; experiment: Immunization of transgenic mice with SLP, CD8 ELISpot-IFN-g; assay type: in vivo, HLA-DRB1*0101/HLA-A*0201 transgenic mice; conditions: INFg-ELIspot; positive if spots more than twice background and above ten; s.c. 100 μg prime, 50 μg boosts, IFA + polyI:C
# Protocol: CD8+ splenocytes from immunized mice were tested by INFg-ELIspot following restimulation with the short epitope MELOE-136-44. Mice were considered positive if the number of spots after restimulation were more than twice the background level and above ten spots.
# HLA-DRB1*0101/HLA-A*0201 transgenic mice (A2/DR1 mice) were used to evaluate immunogenicity of peptides. Group of 5 female A2/DR1 mice (6 to 10 weeks) were immunized subcutaneously with 100 μg of each peptides emulsified in incomplete Freund adjuvant (v/v) plus 50 μg of polyI:C. At day 14 and day 28 boost vaccinations were performed with 50 μg of each peptide along with the same adjuvants. All experiments were carried out according to the good laboratory practices defined by the animal experimentation Rules in France.
# Specific immune responses were evaluated 10 days after the last boost by ELISpot-IFN-g (Diaclone, France). Briefly, freshly isolated splenocytes or CD8 positive T cells from spleen (CD8+ T Cell Isolation Kit, Miltenyi Biotec) were incubated (2.105 cells per well) during 15-20 hours in ELISpot plate in the presence of the class I MELOE-1 epitope (5 μg/ml final) or medium (X-vivo, as negative control) or PMA-ionomycin (positive control). Ex vivo CD4 T cell responses were evaluated on the CD8 negative fraction as above with the HLA-DRB1*0101-restricted epitope MELOE-113-27. […] Spot-forming cells were counted using the «C.T.L. Immunospot» system (Cellular Technology Ltd). Results were considered positive when the ELISPOT counts were >10 spots and above 2× the background (medium). (Dosset et al Clin Cancer Res, 2012)
# Finally, we explored the immunogenicity of our SLP in vivo in HLA-DRB1*0101/HLA-A*0201 transgenic mice. Mice were immunized subcutaneously with 100 μg of SLP in IFA and poly I:C and boosted at D14 and D28 with 50 μg of SLP with the same adjuvants (see M&M). We focused on cross-presentation and thus assessed CD8 T cell responses by ELISpot-IFN-g after re-stimulation with the short MELOE-1136-44 epitope (SEQ ID NO:31) or with medium alone. A mouse was considered responder when ELIspots were above 10 and at least twice about background. A typical experiment is presented in FIG. 7 comparing immunization with SLP containing MELOE-113-27 (SEQ ID NO:21) and MELOE-136-44 (SEQ ID NO:31) with linker GGGG (SEQ ID NO:160) or LLSVGG (SEQ ID NO:9). Immunization with SLP containing GGGG (SEQ ID NO:160) generated moderate CD8 responses in 3 out of five mice while immunization with SLP with LLSVGG (SEQ ID NO:9) was efficient in all 5 mice with two mice showing robust CD8 responses. Previous experiments performed with the shorter linkers LLSV (SEQ ID NO:4) or LLSVG (SEQ ID NO:8) also supported the hypothesis that our synthetic linkers favored cross-presentation when compared to either the linker GGGG or the native sequence (Table 4). In contrast, CD4 responses evaluated ex vivo towards the HLA-DRB1*0101 epitope were very low (FIG. 7C).
# [4] = test system: CD4 MELOE-113-27-specific T cell clone (HLA DRB1*01 restricted)
# Text: MELOE-111-46 native long peptide and SLP with the linker GGGG (SEQ ID NO:160) were used as controls.
# [5] = read-out: EC50, cross-presentation of the HLA-A*0201-restricted MELOE-1 epitope, SLP series MELOE-1 11-23 xxxx MELOE-1 36-44, three independent experiments, FIG. 3
Compound,Fold change = EC50 (M) of MELOE-111-46/EC50 (M) SLP [1],"EC50 [1, 5] [µM]",cross-presentation compared with full length MELOE-1 / native antigen (in words) [1],also measured
"CC(C)C[C@H](NC(=O)[C@@H](NC(=O)CNC(=O)CNC(=O)CNC(=O)CNC(=O)[C@H](Cc1c[nH]c2ccccc12)NC(=O)[C@@H]1CCCN1C(=O)[C@@H]1CCCN1C(=O)[C@H](CS)NC(=O)[C@H](C)NC(=O)[C@H](C)NC(=O)CNC(=O)[C@H](CCC(=O)O)NC(=O)[C@H](CO)NC(=O)[C@@H]1CCCN1C(=O)[C@H](CC(C)C)NC(=O)[C@H](Cc1ccccc1)NC(=O)[C@H](CCC(N)=O)NC(=O)[C@H](CCC(=O)O)NC(=O)[C@H](CCCNC(=N)N)NC(=O)[C@H](CO)NC(=O)[C@@H](NC(=O)[C@H](C)NC(=O)[C@H](C)N)[C@@H](C)O)[C@@H](C)O)C(=O)N[C@@H](CC(N)=O)C(=O)N[C@@H](CC(=O)O)C(=O)N[C@@H](CCC(=O)O)C(=O)N[C@@H](CS)C(=O)N[C@@H](Cc1c[nH]c2ccccc12)C(=O)N1CCC[C@H]1C(=O)N[C@@H](C)C(=O)O [GGGG (MELOE-111-23 xxxx MELOE-136-44), reference compound] (H-AATSREQFLPSEGAACPPWGGGGTLNDECWPA-OH; N-terminus and C-terminus assumed)",,,poorer cross-presentation,EC50 [1]: 1.2 µM
"CC[C@H](C)[C@H](NC(=O)[C@H](CCCNC(=N)N)NC(=O)[C@H](CCC(=O)O)NC(=O)[C@H](CO)NC(=O)[C@@H]1CCCN1C(=O)[C@H](Cc1c[nH]cn1)NC(=O)[C@H](Cc1c[nH]c2ccccc12)NC(=O)[C@@H]1CCCN1C(=O)[C@@H]1CCCN1C(=O)[C@H](CS)NC(=O)[C@H](C)NC(=O)[C@H](C)N)C(=O)N[C@@H](CO)C(=O)N[C@@H](CO)C(=O)N[C@H](C(=O)N[C@@H](CC(C)C)C(=O)NCC(=O)NCC(=O)NCC(=O)NCC(=O)N[C@H](C(=O)N[C@@H](CC(C)C)C(=O)N[C@@H](CC(N)=O)C(=O)N[C@@H](CC(=O)O)C(=O)N[C@@H](CCC(=O)O)C(=O)N[C@@H](CS)C(=O)N[C@@H](Cc1c[nH]c2ccccc12)C(=O)N1CCC[C@H]1C(=O)N[C@@H](C)C(=O)N[C@@H](CO)C(=O)N[C@@H](CC(C)C)C(=O)O)[C@@H](C)O)[C@@H](C)O [GGGG (MELOE-124-37 xxxx MELOE-136-44), reference compound] (H-AACPPWHPSERISSTLGGGGTLNDECWPASL-OH; N-terminus and C-terminus assumed)",,,,EC50 [1]: 1.9 µM; EC50 [2]: 0.026 µM
CC[C@H](C)[C@H](NC(=O)[C@H](CCCNC(=N)N)NC(=O)[C@H](CCC(=O)O)NC(=O)[C@H](CO)NC(=O)[C@@H]1CCCN1C(=O)[C@H](Cc1c[nH]cn1)NC(=O)[C@H](Cc1c[nH]c2ccccc12)NC(=O)[C@@H]1CCCN1C(=O)[C@@H]1CCCN1C(=O)[C@H](CS)NC(=O)[C@H](C)NC(=O)[C@H](C)N)C(=O)N[C@@H](CO)C(=O)N[C@@H](CO)C(=O)N[C@H](C(=O)N[C@@H](CC(C)C)C(=O)N[C@@H](CC(C)C)C(=O)N[C@H](C(=O)NCC(=O)N[C@@H](CO)C(=O)N[C@H](C(=O)N[C@@H](CC(C)C)C(=O)N[C@@H](CC(N)=O)C(=O)N[C@@H](CC(=O)O)C(=O)N[C@@H](CCC(=O)O)C(=O)N[C@@H](CS)C(=O)N[C@@H](Cc1c[nH]c2ccccc12)C(=O)N1CCC[C@H]1C(=O)N[C@@H](C)C(=O)N[C@@H](CO)C(=O)N[C@@H](CC(C)C)C(=O)O)[C@@H](C)O)C(C)C)[C@@H](C)O [LVGS (MELOE-124-37 xxxx MELOE-136-44)] (H-AACPPWHPSERISSTLLVGSTLNDECWPASL-OH),,,,EC50 [1]: 0.11 µM; EC50 [2]: 0.014 µM
ASLG [ASLG (MELOE-111-23 xxxx MELOE-136-44)],,0.012,ten fold better presentation,
GSGS [GSGS (MELOE-111-23 xxxx MELOE-136-44)],,0.43,poorer cross-presentation,
LLSV [LLSV (MELOE-111-23 xxxx MELOE-136-44)],,0.0028,hundred fold better,
LVGS [LVGS (MELOE-111-23 xxxx MELOE-136-44)],,0.034,ten fold better presentation,
"MSCVGYPDEATSREQFLPSEGAACPPWHPSERISSTLNDECWPASL (cysteines drawn unpaired) [full length MELOE-1, reference compound]",,,,EC50 [2]: ~0.07 µM
PIVLG [PIVLG (MELOE-111-23 xxxx MELOE-136-44)],,0.0032,hundred fold better,
TSREQFLPSEGAACPPWVLSVGGTLNDECWPASL (Synthetic SLP) [SEQ ID NO: 69],1.5-2,,,
TSREQFLPSEGAACPPWVLSVGTLNDECWPASL (Synthetic SLP) [SEQ ID NO: 71],3-13,,ten fold,

# Second part, led by results:
Fold change = EC50 (M) of MELOE-111-46/EC50 (M) SLP [1],"EC50 [1, 5] [µM]",Compound,cross-presentation compared with full length MELOE-1 / native antigen (in words) [1],also measured
10-20,,CC(C)C[C@H](NC(=O)[C@H](CO)NC(=O)[C@H](C)NC(=O)[C@@H]1CCCN1C(=O)[C@H](Cc1c[nH]c2ccccc12)NC(=O)[C@H](CS)NC(=O)[C@H](CCC(=O)O)NC(=O)[C@H](CC(=O)O)NC(=O)[C@H](CC(N)=O)NC(=O)[C@H](CC(C)C)NC(=O)[C@@H](NC(=O)CNC(=O)[C@@H](NC(=O)[C@H](CO)NC(=O)[C@H](CC(C)C)NC(=O)[C@H](CC(C)C)NC(=O)[C@H](Cc1c[nH]c2ccccc12)NC(=O)[C@@H]1CCCN1C(=O)[C@@H]1CCCN1C(=O)[C@H](CS)NC(=O)[C@H](C)NC(=O)[C@H](C)NC(=O)CNC(=O)[C@H](CCC(=O)O)NC(=O)[C@H](CO)NC(=O)[C@@H]1CCCN1C(=O)[C@H](CC(C)C)NC(=O)[C@H](Cc1ccccc1)NC(=O)[C@H](CCC(N)=O)NC(=O)[C@H](CCC(=O)O)NC(=O)[C@H](CCCNC(=N)N)NC(=O)[C@H](CO)NC(=O)[C@@H](N)[C@@H](C)O)C(C)C)[C@@H](C)O)C(=O)O [SEQ ID NO: 89] (H-TSREQFLPSEGAACPPWLLSVGTLNDECWPASL-OH; N-terminus and C-terminus assumed),,"CD8 responses, positive mice, Exp#2 [3]: 2/5; EC50 [4]: 0.0068 µM"
1-3,,TSREQFLPSEGAACPPWALSVGGTLNDECWPASL (Synthetic SLP) [SEQ ID NO: 77],,
1,,TSREQFLPSEGAACPPWGLSVGGTLNDECWPASL (Synthetic SLP) [SEQ ID NO: 81],,
1,,TSREQFLPSEGAACPPWGLSVVVTLNDECWPASL (Synthetic SLP) [SEQ ID NO: 85],,
2.3-10,,TSREQFLPSEGAACPPWPLSVIITLNDECWPASL (Synthetic SLP) [SEQ ID NO: 79],,
7-8,,TSREQFLPSEGAACPPWSLSVAATLNDECWPASL (Synthetic SLP) [SEQ ID NO: 73],,
1-8,,TSREQFLPSEGAACPPWSLSVGGTLNDECWPASL (Synthetic SLP) [SEQ ID NO: 75],,
,0.0021,VLSVG [VLSVG (MELOE-111-23 xxxx MELOE-136-44)],hundred fold better,
